From publication PMC2758050 (Bioorganic & medicinal chemistry letters, 2009)
Where two headings read alike, the source gives them in different places.

What was measured:
[1] = target: mMC1R (Mus musculus, UniProt Q01727); experiment: Agonist activity of N-capped tripeptides on mouse MC1 receptor
[2] = tested on: hMC1R; settings: cited from earlier work; for EC50: read-out: EC50 hMC1R, agonist
[3] = tested on: DNA damage resulting from exposure to solar UV radiation; settings: compared with α-MSH; ref 4a; cited from earlier work
[4] = target: mMC4R (Mus musculus, UniProt P56450); experiment: Agonist activity of N-capped tripeptides on mouse MC4 receptor
mMC4R, sequence (P56450 whole entry): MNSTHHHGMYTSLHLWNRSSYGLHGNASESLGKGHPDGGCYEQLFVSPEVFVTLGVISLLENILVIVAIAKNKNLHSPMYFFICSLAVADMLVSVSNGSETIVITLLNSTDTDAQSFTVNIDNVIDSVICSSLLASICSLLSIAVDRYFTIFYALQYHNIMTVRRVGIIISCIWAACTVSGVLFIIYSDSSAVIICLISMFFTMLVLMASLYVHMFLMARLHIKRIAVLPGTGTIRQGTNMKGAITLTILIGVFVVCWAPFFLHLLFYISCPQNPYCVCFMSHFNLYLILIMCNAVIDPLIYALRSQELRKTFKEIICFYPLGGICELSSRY

[5] = target: mMC5R (Mus musculus, UniProt P41149); experiment: Agonist activity of N-capped tripeptides on mouse MC5 receptor
mMC5R, sequence (P41149 whole entry): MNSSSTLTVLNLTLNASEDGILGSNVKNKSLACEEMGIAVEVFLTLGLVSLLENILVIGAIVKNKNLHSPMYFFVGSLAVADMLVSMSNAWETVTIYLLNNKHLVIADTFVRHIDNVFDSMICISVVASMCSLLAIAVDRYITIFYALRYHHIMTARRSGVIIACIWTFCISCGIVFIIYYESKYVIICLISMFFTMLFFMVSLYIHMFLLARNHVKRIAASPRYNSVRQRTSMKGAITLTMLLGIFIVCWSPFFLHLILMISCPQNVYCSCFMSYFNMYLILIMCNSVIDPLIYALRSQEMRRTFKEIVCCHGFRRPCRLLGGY

[6] = tested on: hMC4R; settings: ref 3b; cited from earlier work
[7] = tested on: hMC3R; settings: ref 3b; cited from earlier work

mMC1R, sequence (Q01727 whole entry): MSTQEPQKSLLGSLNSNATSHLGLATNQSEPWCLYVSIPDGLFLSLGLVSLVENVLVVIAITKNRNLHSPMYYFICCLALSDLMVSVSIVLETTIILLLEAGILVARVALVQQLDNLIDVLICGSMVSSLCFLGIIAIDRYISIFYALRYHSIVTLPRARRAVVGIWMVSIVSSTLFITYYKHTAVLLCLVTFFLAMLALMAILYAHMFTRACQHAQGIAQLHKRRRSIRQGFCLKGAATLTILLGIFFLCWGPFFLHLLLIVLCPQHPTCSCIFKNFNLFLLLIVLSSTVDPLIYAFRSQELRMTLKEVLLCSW

EC50 [1] [pM]	EC50 [4] [pM]	EC50 [5] [pM]	loss in potency compared to 1 at mMC1R ([1]; vs tetrapeptide 1) [fold]	Compound	EC50 ([2]; ref 3a) [pM]	potency in repairing DNA damage resulting from solar UV radiation [3]	EC50 ([2]; ref 3b) [pM]	type of agonism at hMC1R ([2]; ref 3b)	type of agonism at hMC4R [6]	type of agonism at hMC3R [7]
1600 ± 290	540 ± 190	330 ± 140		N=C(N)NCCC[C@H](NC(=O)[C@@H](Cc1ccccc1)NC(=O)[C@H](Cc1c[nH]cn1)NC(=O)CCCc1ccccc1)C(=O)N[C@@H](Cc1c[nH]c2ccccc12)C(N)=O [Compound 1, Ph(CH2)3CO-His-D-Phe-Arg-Trp-NH2]	10	more potent than α-MSH				
			590	N=C(N)NCCC[C@H](NC(=O)[C@@H](Cc1ccccc1)NC(=O)[C@H](Cc1c[nH]cn1)NC(=O)CCCc1ccccc1)C(N)=O [Compound 2, Ph(CH2)3CO-His-D-Phe-Arg-NH2]			5000	full hMC1 agonist	weak partial agonism	weak partial agonism
